Reference: patent US6821980B1, “Substituted 5-benzyl-2,4-diaminopyrimidines” (Basilea Pharmaceutica AG, priority 1999, dated 2004)
Converted amounts (≈) assume the structure as drawn. Where two headings read alike, the source gives them in different places.

What was measured:
[1] = system: Streptococcus pneumoniae 1/1; test: MIC against Streptococcus pneumoniae 1/1; type: cell-based; conditions: Table 2, Streptococcus pneumoniae 1/1, trimethoprim- and penicillin-resistant, serotype 6, clinical isolate; for MIC: read-out: MIC Sp1/1
[2] = system: Staphylococcus aureus 101; test: MIC against Staphylococcus aureus 101; type: cell-based; conditions: Table 2, Staphylococcus aureus 101, MRSA- and trimethoprim-resistant, clinical isolate; for MIC: read-out: MIC Sa101
[3] = biological target: purified DHFR of strain 157/4696 of Staphylococcus aureus (Staphylococcus aureus, UniProt P13955); test: biochemical
Chain of purified DHFR of strain 157/4696 of Staphylococcus aureus (P13955 whole entry): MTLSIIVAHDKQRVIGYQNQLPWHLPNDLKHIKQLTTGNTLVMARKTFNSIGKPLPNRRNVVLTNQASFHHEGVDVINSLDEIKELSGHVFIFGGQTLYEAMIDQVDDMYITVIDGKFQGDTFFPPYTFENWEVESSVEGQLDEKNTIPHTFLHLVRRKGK

[4] = biological target: T1, purified DHFR of strain Sp1/1 of Streptococcus pneumoniae (Streptococcus pneumoniae serotype 4, UniProt Q54801); type: biochemical; conditions: Table 2; IC50 against purified DHFR of strain Sp1/1
T1 sequence (Q54801 1-168 I100L): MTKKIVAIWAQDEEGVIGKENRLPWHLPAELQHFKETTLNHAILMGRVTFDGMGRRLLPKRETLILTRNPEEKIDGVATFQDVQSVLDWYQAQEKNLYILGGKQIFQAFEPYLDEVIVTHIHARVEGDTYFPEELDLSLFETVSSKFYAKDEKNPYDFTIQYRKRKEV

[5] = Table 2, IC50 against purified DHFR of strain 157/4696 (highly trimethoprim-resistant; clinical isolate), read-out: DHFR Sa1

`CCOc1cc(Cc2cnc(N)nc2N)cc(OS(=O)(=O)CC(C)C)c1-c1ccc(NCCO)cc1` [Example 36-e, 2-Methyl-propane-1-sulphonic acid 4-(2,4-diamino-pyrimidin-5-ylmethyl)-6-ethoxy-4′-(2-hydroxy-ethylamino)-biphenyl-2-yl ester] showed an MIC [1] of 0.5 µg/mL (≈ 0.97 µM), an MIC [2] of 4 µg/mL (≈ 7.76 µM) and an IC50 [3] of 250 nM. It also gave an IC50 [4] of 2.1 nM.
For `CCOc1cc(Cc2cnc(N)nc2N)cc(OS(=O)(=O)CC(C)(C)C)c1-c1ccc(N)c(F)c1` [Example 37-a, 2,2-Dimethyl-propane-1-sulphonic acid 4′-amino-4-(2,4-diamino-pyrimidin-5-ylmethyl)-6-ethoxy-3′-fluoro-biphenyl-2-yl ester], the MIC [1] was 0.25 µg/mL (≈ 0.496 µM), the MIC [2] was 4 µg/mL (≈ 7.94 µM) and the IC50 [3] was 550 nM. For the same compound, the IC50 [4] was 4.5 nM.
`CCOc1cc(Cc2cnc(N)nc2N)cc(OS(=O)(=O)CC(C)(C)C)c1-c1ccc(OC)c(N)c1` [Example 37-b, 2,2-Dimethyl-propane-1-sulphonic acid 3′-amino-4-(2,4-diamino-pyrimidin-5-ylmethyl)-6-ethoxy-4′-methoxy-biphenyl-2-yl ester] was tested, and the MIC [1] was 0.25 µg/mL (≈ 0.485 µM), the MIC [2] was 4 µg/mL (≈ 7.76 µM) and the IC50 [3] was 260 nM. The IC50 [4] was 1.7 nM.
`CCOc1cc(Cc2cnc(N)nc2N)cc(OS(=O)(=O)CC(C)(C)C)c1-c1ccc(N)cc1` [Example 37-c, 2,2-Dimethyl-propane-1-sulphonic acid 4′-amino-4-(2,4-diamino-pyrimidin-5-ylmethyl)-6-ethoxy-biphenyl-2-yl ester] showed an MIC [1] of 0.5 µg/mL (≈ 1.03 µM), an MIC [2] of 4 µg/mL (≈ 8.24 µM) and an IC50 [3] of 580 nM. It also gave an IC50 [4] of 1.8 nM.
`CCOc1cc(Cc2cnc(N)nc2N)cc(OS(=O)(=O)CC(C)(C)C)c1-c1ccc(NCCO)cc1` [Example 37-d, 2,2-Dimethyl-propane-1-sulphonic acid 4-(2,4-diamino-pyrimidin-5-ylmethyl)-6-ethoxy-4′-(2-hydroxy-ethylamino)-biphenyl-2-yl ester] was tested, and the MIC [1] was 0.25 µg/mL (≈ 0.472 µM), the MIC [2] was 8 µg/mL (≈ 15.1 µM) and the IC50 [3] was 290 nM. For the same compound, the IC50 [4] was 1.5 nM.
In the case of `CCOc1cc(Cc2cnc(N)nc2N)cc(OS(=O)(=O)CC2CC2)c1-c1cccc(N)c1` [Example 38-a, Cyclopropylmethane-sulphonic acid 3′-amino-4-(2,4-diamino-pyrimidin-5-ylmethyl)-6ethoxy-biphenyl-2-yl ester], the MIC [1] is reported as 1 µg/mL (≈ 2.13 µM), the MIC [2] is reported as 2 µg/mL (≈ 4.26 µM) and the IC50 [3] is reported as 160 nM. It also gave an IC50 [4] of 5.2 nM.
In the case of `CCOc1cc(Cc2cnc(N)nc2N)cc(OS(=O)(=O)CC2CC2)c1-c1ccc(N)c(F)c1` [Example 38-b, Cyclopropylmethane-sulphonic acid 4′-amino-4-(2,4-diamino-pyrimidin-5-ylmethyl)-6-ethoxy-3′-fluoro-4-ylmethyl-biphenyl-2-yl ester], the “MIC Sp1/1” value [1] is reported as 1 µg/mL (≈ 2.05 µM), the “MIC Sa101” value [2] is reported as 2 µg/mL (≈ 4.1 µM) and the IC50 [3, 5] is reported as 220 nM. For the same compound, the IC50 [4] was 6.5 nM.
Work on `CCOc1cc(Cc2cnc(N)nc2N)cc(OS(=O)(=O)CC2CC2)c1-c1ccc(N)c(C)c1` [Example 38-c, Cyclopropylmethane-sulphonic acid 4′-amino-4-(2,4-diamino-pyrimidin-5-ylmethyl)-6-ethoxg-3′-methyl-biphenyl-2-yl ester] yielded an MIC [1] of 0.5 µg/mL (≈ 1.03 µM), an MIC [2] of 2 µg/mL (≈ 4.14 µM) and an IC50 [3] of 190 nM. The IC50 [4] was 5.8 nM.
For `CCOc1cc(Cc2cnc(N)nc2N)cc(OS(=O)(=O)CC2CC2)c1-c1ccc(CN2CCOCC2)c(N)c1` [Example 38-d, Cyclopropylmethane-sulphonic acid 3′-amino-4-(2,4-diamino-pyrimidin-5-ylmethyl)-6-ethoxy-4′-morpholinemethyl-biphenyl-2-yl ester], the “MIC Sp1/1” value [1] was 1 µg/mL (≈ 1.76 µM), the “MIC Sa101” value [2] was 4 µg/mL (≈ 7.03 µM) and the IC50 [3, 5] was 240 nM. The IC50 [4] was 3.2 nM.
For `CCOc1cc(Cc2cnc(N)nc2N)cc(OS(=O)(=O)CC(C)(C)OC)c1-c1cccc(N)c1` [Example 39-a, (2-Methoxy-2-methyl-propane)-1-sulphonic acid 3′-amino-4-(2,4-diamino-pyrimidin-5-ylmethyl)-6-ethoxy-biphenyl-2-yl ester], the MIC [1] was 1 µg/mL (≈ 1.99 µM), the MIC [2] was 4 µg/mL (≈ 7.97 µM) and the IC50 [3] was 390 nM. For the same compound, the IC50 [4] was 4.2 nM.
`CCOc1cc(Cc2cnc(N)nc2N)cc(OS(=O)(=O)CC(C)(C)OC)c1-c1ccc(N)c(C)c1` [Example 39-b, (2-Methoxy-2-methyl-propane)-1-sulphonic acid 4′-amino-4-(2,4-diamino-pyrimidin-5-ylmethyl)-6-ethoxy-3′-methyl-biphenyl-2-yl ester] gave an MIC [1] of 0.5 µg/mL (≈ 0.97 µM), an MIC [2] of 4 µg/mL (≈ 7.76 µM) and an IC50 [3] of 250 nM. It also gave an IC50 [4] of 4.9 nM.
In the case of `CCOc1cc(Cc2cnc(N)nc2N)cc(OS(=O)(=O)CC(C)(C)OC)c1-c1ccc(N)c(F)c1` [Example 39-c, (2-Methoxg-2-methyl-propane)-1-sulphonic acid 4′-amino-4-(2,4-diamino-pyrimidin-5-ylmethyl)-6-ethoxy-3′-fluoro-4-ylmethyl-biphenyl-2-yl ester], the “MIC Sp1/1” value [1] is reported as 1 µg/mL (≈ 1.92 µM), the “MIC Sa101” value [2] is reported as 8 µg/mL (≈ 15.4 µM) and the IC50 [3, 5] is reported as 1000 nM. For the same compound, the IC50 [4] was 14 nM.
In the case of `CCOc1cc(Cc2cnc(N)nc2N)cc(OS(=O)(=O)CC(C)(C)OC)c1-c1ccc(CN2CCOCC2)c(N)c1` [Example 39-d, (2-Methoxy-2-methyl-propane)-1-sulphonic acid 3′-amino-4-(2,4-diamino-pyrimidin-5-ylmethyl)-6-ethoxy-4′-morpholinemethyl-biphenyl-2-yl ester], the “MIC Sp1/1” value [1] is reported as 2 µg/mL (≈ 3.33 µM), the “MIC Sa101” value [2] is reported as 8 µg/mL (≈ 13.3 µM) and the IC50 [3, 5] is reported as 410 nM. It also gave an IC50 [4] of 2.6 nM.
`CCOc1cc(Cc2cnc(N)nc2N)cc(OS(=O)(=O)C2CCC2)c1-c1cccc(N)c1` [Example 40-a, Cyclobutane-sulphonic acid 3′-amino-4-(2,4-diamino-pyrimidin-5-ylmethyl)-6-ethoxy-biphenyl-2-yl ester] gave an MIC [1] of 1 µg/mL (≈ 2.13 µM), an MIC [2] of 2 µg/mL (≈ 4.26 µM) and an IC50 [3] of 52 nM. For the same compound, the IC50 [4] was 6.5 nM.
In the case of `CCOc1cc(Cc2cnc(N)nc2N)cc(OS(=O)(=O)C2CCC2)c1-c1ccc(N)c(F)c1` [Example 40-b, Cylobutane-sulphonic acid 4′-amino-4-(2,4-diamino-pyrimidin-5-ylmethyl)-6-ethoxy-3′-fluoro-4-ylmethyl-biphenyl-2-yl ester], the “MIC Sp1/1” value [1] is reported as 1 µg/mL (≈ 2.05 µM), the “MIC Sa101” value [2] is reported as 2 µg/mL (≈ 4.1 µM) and the IC50 [3, 5] is reported as 310 nM. It also gave an IC50 [4] of 27 nM.
For `CCOc1cc(Cc2cnc(N)nc2N)cc(OS(=O)(=O)C2CCC2)c1-c1ccc(CN2CCOCC2)c(N)c1` [Example 40-d, Cyclobutane-sulphonic acid 3′-amino-4-(2,4-diamino-pyrimidin-5-ylmethyl)-6-ethoxy-4′-morpholinomethyl-biphenyl-2-yl ester], the MIC [1] was 2 µg/mL (≈ 3.52 µM), the MIC [2] was 2 µg/mL (≈ 3.52 µM) and the IC50 [3] was 130 nM. It also gave an IC50 [4] of 17 nM.
`CCOc1cc(Cc2cnc(N)nc2N)cc(OS(=O)(=O)C2CCC2)c1-c1cc(N)cc(F)c1` [Example 40-e, Cyclobutane-sulphonic acid 3′-amino-4-(2,4-diamino-pyrimidin-5-ylmethyl)-6-ethoxy-5′-fluoro-biphenyl-2-yl ester] was tested, and the MIC [1] was 2 µg/mL (≈ 4.1 µM), the MIC [2] was 2 µg/mL (≈ 4.1 µM) and the IC50 [3] was 160 nM. It also gave an IC50 [4] of 79 nM.
